{"source": "ChEMBL document CHEMBL5465560", "about": "“Selectivity Literature for EUbOPEN Chemogenomic Library” (2024)", "key": {"[1]": {"target": "Serine/threonine-protein kinase PAK 4 (Homo sapiens, UniProt O96013)", "sequence (O96013 whole entry, looked up)": "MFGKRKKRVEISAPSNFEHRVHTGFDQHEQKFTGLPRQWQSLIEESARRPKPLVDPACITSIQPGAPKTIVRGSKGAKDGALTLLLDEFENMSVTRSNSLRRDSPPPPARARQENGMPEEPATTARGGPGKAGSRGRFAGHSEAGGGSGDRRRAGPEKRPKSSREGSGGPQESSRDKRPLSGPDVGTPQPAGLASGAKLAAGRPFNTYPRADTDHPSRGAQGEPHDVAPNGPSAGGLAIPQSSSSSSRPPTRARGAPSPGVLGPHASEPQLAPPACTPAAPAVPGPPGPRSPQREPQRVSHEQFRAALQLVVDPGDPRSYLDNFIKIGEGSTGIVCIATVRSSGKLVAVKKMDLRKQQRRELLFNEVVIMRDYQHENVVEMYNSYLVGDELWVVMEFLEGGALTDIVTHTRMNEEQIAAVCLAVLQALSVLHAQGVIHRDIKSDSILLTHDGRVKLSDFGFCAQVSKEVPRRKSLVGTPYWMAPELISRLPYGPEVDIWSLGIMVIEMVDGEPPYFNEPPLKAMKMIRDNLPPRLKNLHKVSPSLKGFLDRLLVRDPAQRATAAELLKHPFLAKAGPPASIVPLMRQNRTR", "assay": "Selectivity interaction (KinomeScan (DiscoverX)) EUB0000092b PAK4", "conditions": "at 10 µM"}, "[2]": {"target": "T1, MAP/microtubule affinity-regulating kinase 4 (Homo sapiens) (UniProt Q96L34)", "T1 sequence (whole entry)": "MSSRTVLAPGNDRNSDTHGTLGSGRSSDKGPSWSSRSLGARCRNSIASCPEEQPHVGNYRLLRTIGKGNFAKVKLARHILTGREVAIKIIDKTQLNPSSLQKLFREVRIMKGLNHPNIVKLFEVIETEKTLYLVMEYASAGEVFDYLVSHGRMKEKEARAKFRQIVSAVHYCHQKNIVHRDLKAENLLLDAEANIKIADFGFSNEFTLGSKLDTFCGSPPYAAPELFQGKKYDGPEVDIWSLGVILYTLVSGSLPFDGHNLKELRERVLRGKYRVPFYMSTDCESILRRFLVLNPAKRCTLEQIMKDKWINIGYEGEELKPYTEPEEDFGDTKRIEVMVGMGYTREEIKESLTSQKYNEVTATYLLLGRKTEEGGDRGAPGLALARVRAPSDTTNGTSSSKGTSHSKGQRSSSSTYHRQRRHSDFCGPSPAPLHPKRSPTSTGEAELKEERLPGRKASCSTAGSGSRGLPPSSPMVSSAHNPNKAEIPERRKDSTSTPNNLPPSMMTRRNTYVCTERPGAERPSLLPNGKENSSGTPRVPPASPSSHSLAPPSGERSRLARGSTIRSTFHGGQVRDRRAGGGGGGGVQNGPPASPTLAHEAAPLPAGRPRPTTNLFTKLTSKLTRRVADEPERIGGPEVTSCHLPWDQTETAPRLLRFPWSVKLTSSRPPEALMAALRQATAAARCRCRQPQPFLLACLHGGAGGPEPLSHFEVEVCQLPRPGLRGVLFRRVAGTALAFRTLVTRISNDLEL", "assay": "Selectivity interaction (Kinase panel (DSF assay)) EUB0001559a MARK4"}, "[3]": {"target": "T2, Mitogen-activated protein kinase kinase kinase kinase 2 (Homo sapiens) (UniProt Q12851)", "T2 sequence (whole entry)": "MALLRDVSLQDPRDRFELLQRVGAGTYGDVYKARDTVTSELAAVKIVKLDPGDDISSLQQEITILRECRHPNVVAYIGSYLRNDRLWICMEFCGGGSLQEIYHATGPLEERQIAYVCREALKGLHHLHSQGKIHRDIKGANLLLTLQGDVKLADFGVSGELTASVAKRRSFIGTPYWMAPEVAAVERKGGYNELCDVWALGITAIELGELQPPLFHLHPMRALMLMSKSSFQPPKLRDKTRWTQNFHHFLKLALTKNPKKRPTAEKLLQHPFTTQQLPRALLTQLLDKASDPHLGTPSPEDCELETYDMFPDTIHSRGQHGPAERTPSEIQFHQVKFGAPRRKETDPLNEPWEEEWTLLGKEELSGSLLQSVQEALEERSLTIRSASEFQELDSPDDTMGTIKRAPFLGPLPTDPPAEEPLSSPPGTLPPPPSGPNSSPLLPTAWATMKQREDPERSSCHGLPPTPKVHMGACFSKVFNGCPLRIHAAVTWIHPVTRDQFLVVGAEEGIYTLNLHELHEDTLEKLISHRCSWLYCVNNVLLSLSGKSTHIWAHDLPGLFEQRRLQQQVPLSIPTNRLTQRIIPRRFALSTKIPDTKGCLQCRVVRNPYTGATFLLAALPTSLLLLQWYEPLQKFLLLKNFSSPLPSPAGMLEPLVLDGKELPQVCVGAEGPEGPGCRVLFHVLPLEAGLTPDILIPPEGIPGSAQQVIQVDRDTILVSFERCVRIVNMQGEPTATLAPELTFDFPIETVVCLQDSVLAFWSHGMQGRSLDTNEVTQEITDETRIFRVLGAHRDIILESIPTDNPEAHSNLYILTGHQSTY", "assay": "Selectivity interaction (Kinase panel (Z-LYTE Assay)) EUB0001632a MAP4K2", "conditions": "at 10 µM"}, "[4]": {"target": "T3, Serine/threonine-protein kinase RIO1 (Homo sapiens) (UniProt Q9BRS2)", "T3 sequence (whole entry)": "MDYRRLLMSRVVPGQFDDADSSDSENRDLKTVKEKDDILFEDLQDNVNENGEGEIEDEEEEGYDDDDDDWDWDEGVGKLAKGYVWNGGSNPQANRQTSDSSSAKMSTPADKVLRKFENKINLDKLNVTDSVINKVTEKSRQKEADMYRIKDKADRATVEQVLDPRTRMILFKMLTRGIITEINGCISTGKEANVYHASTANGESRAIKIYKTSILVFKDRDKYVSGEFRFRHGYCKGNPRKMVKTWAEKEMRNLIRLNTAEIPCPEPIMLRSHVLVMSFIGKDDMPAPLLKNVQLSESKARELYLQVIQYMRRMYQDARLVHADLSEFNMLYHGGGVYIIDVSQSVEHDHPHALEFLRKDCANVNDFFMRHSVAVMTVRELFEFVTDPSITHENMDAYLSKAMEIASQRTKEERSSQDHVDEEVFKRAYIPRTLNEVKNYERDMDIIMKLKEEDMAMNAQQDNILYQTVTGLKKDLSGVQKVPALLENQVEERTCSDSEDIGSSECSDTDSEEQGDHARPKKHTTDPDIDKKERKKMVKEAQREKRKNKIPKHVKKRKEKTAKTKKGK", "assay": "Selectivity interaction (KinomeScan (DiscoverX)) EUB0000595a RIOK1", "conditions": "at 10 µM"}, "[5]": {"target": "Serine/threonine-protein kinase Nek6 (Homo sapiens) (UniProt Q9HC98)", "sequence (Q9HC98 whole entry)": "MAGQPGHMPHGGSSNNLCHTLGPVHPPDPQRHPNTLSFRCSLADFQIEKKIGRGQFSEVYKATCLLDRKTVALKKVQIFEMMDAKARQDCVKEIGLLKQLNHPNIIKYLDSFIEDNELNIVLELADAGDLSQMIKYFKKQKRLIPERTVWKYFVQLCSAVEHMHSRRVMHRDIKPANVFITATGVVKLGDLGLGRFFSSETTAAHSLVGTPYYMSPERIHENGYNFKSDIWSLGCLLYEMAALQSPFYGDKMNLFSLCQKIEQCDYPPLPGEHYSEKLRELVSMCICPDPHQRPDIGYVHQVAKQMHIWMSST", "assay": "Selectivity interaction (Kinase panel (literature)) EUB0001199aCl NEK6", "conditions": "at 1 µM"}}, "data": [{"smiles": "CCC(=O)N1CCN(c2ccc(-n3c(=O)ccc4cnc5ccc(-c6cnc7ccccc7c6)cc5c43)cc2C(F)(F)F)CC1", "values": [{"measurement": "% of control", "setting": "[1]", "result": 100, "unit": "%"}]}, {"smiles": "CN(C(=O)c1cnn2cccnc12)c1cc2c(cc1N1CCOCC1)C(=O)N(C[C@@H](F)C(C)(C)O)C2", "values": [{"measurement": "dTM", "setting": "[2]", "result": 0.9, "unit": "K"}]}, {"smiles": "Cn1cc(-n2cnc3c(NCc4nc5cc(Cl)c(Cl)cc5[nH]4)nc(N4CCOCC4)nc32)cn1", "values": [{"measurement": "% of control", "setting": "[3]", "result": -4.87, "unit": "%"}]}, {"smiles": "COCC(=O)NC/C=C/c1ccc2ncnc(Nc3ccc(Oc4ccc(C)nc4)c(C)c3)c2c1", "note": "[CP-724714]", "values": [{"measurement": "% of control", "setting": "[4]", "result": 91, "unit": "%"}]}, {"smiles": "CN1Cc2nccc(-c3cn(C)nc3-c3ccc(F)cc3)c2C1=O", "values": [{"measurement": "% of inhibition", "setting": "[5]", "result": 5, "unit": "%"}]}]}
